According to US20060069132A1, “Azolecarboxamide herbicides” (priority 2004, published 2006):

Experiments:
[1] = system: bermudagrass; test: Test C pre-/postemergence herbicide test; type: in vivo, Cynodon dactylon
How it was run: (§1)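 Visual injury scores run from 0 (no effect) to 100 (complete control), assessed relative to untreated controls 12 to 14 days after treatment in the greenhouse. Chemicals were formulated in a non-phytotoxic solvent mixture with surfactant and applied to soil after planting or to emerged plants at the 1- to 4-leaf stage.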

[2] = system: giant foxtail; test: Test C pre-/postemergence herbicide test; type: in vivo, Setaria faberi
How it was run: as §1

[3] = system: lambsquarters; test: Test C pre-/postemergence herbicide test; type: in vivo, Chenopodium album
How it was run: as §1

[4] = system: morningglory; test: Test C pre-/postemergence herbicide test; type: in vivo, Ipomoea coccinea; set-up: key to Plant response rating, Morningglory: 0 = no effect, 100 = complete control
How it was run: as §1

[5] = system: eastern black nightshade; test: Test C pre-/postemergence herbicide test; type: in vivo, Solanum ptycanthum
How it was run: as §1

[6] = system: yellow nutsedge; test: Test C pre-/postemergence herbicide test; type: in vivo, Cyperus esculentus
How it was run: as §1

[7] = system: common ragweed; test: Test C pre-/postemergence herbicide test; type: in vivo, Ambrosia elatior; set-up: key to Plant response rating, Ragweed: 0 = no effect, 100 = complete control
How it was run: as §1

[8] = system: smallflower umbrella sedge; test: Test C flooded paddy test; type: in vivo, Cyperus difformis
[9] = system: barnyardgrass; test: Test C flooded paddy test; type: in vivo, Echinochloa crus-galli
How it was run: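 Scoring by eye, 12–14 days post-treatment, greenhouse-held plants vs. controls; 0 no effect, 100 complete control. Sprayed at 1–4 leaves (2–18 cm); paddy barnyardgrass at 2 leaves, flooded.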

[10] = 250 g ai/ha, scale 0-100, preemergence
[11] = 500 g ai/ha, scale 0 to 100 (0 no effect, 100 complete control), visual, 12 to 14 days, preemergence
[12] = 62 g ai/ha, preemergence, scale 0 to 100
[13] = 125 g ai/ha, scale 0 to 100 (0 no effect, 100 complete control)
[14] = 250 g ai/ha, scale of 0 to 100, 0 is no effect, 100 is complete control
[15] = 500 g ai/ha, visual rating after 12 to 14 days, scale 0 to 100 (0 no effect, 100 complete control)
[16] = Preemergence, 500 g ai/ha, scale 0 to 100, 0 no effect, 100 complete control

Q: Which “Plant response rating, Bermudagrass” value ([1]; 62 g ai/ha, preemergence, scale 0 to 100, 0 no effect, 100 complete control) does the source give for `CCc1nn(C(C)(C)C)nc1C(=O)Nc1cccc(C(=S)N(C)C)c1` [Compound 395] here?
A: Its value is 95.

Q: What about the “Plant response rating (0 = no effect, 100 = complete control), Bermudagrass” value ([1]; 125 g ai/ha, preemergence) of the same compound?
A: Its value is 100.

Q: And the “Plant response rating, Bermudagrass” value [1, 10]?
A: The value was 100.

Q: And the “Plant response rating, Bermudagrass” value [1, 11]?
A: Its value is 100.

Q: What about the “Plant response rating, Foxtail, Giant” value [2, 12] of the same compound?
A: Its value is 95.

Q: And the “Plant response rating (0 = no effect, 100 = complete control), Foxtail, Giant” value ([2]; 125 g ai/ha, preemergence)?
A: Its value is 100.

Q: And the “Plant response rating, Foxtail, Giant” value [2, 10]?
A: The value was 100.

Q: And the “Plant response rating, Foxtail, Giant” value [2, 11]?
A: Its value is 100.

Q: What about the “Plant response rating, Lambsquarters” value [3, 12] of the same compound?
A: Its value is 100.

Q: And the “Plant response rating (0 = no effect, 100 = complete control), Lambsquarters” value ([3]; 125 g ai/ha, preemergence)?
A: The value was 100.

Q: And the “Plant response rating, Lambsquarters” value [3, 10]?
A: Its value is 100.

Q: What about the “Plant response rating, Lambsquarters” value [3, 11] of the same compound?
A: The value was 100.

Q: What about the “Plant response rating, Morningglory” value [4, 12] of the same compound?
A: The value was 15.

Q: What about the “Plant response rating (0 = no effect, 100 = complete control), Morningglory” value ([4]; 125 g ai/ha, preemergence) of the same compound?
A: The value was 80.

Q: What about the “Plant response rating, Morningglory” value [4, 10] of the same compound?
A: The value was 100.

Q: And the “Plant response rating, Morningglory” value [4, 11]?
A: The value was 100.

Q: What about the “Plant response rating, Nightshade” value [5, 12] of the same compound?
A: The value was 100.

Q: And the “Plant response rating (0 = no effect, 100 = complete control), Nightshade” value ([5]; 125 g ai/ha, preemergence)?
A: Its value is 100.

Q: What about the “Plant response rating, Nightshade” value [5, 10] of the same compound?
A: The value was 100.

Q: What about the “Plant response rating, Nightshade” value [5, 11] of the same compound?
A: The value was 100.

Q: And the “Plant response rating, Nutsedge, Yellow” value [6, 12]?
A: The value was 15.

Q: And the “Plant response rating (0 = no effect, 100 = complete control), Nutsedge, Yellow” value ([6]; 125 g ai/ha, preemergence)?
A: The value was 55.

Q: What about the “Plant response rating, Nutsedge, Yellow” value [6, 10] of the same compound?
A: The value was 80.

Q: What about the “Plant response rating, Nutsedge, Yellow” value [6, 11] of the same compound?
A: The value was 90.

Q: What about the “Plant response rating, Ragweed” value [7, 12] of the same compound?
A: The value was 65.

Q: And the “Plant response rating (0 = no effect, 100 = complete control), Ragweed” value ([7]; 125 g ai/ha, preemergence)?
A: The value was 95.

Q: And the “Plant response rating, Ragweed” value [7, 10]?
A: Its value is 100.

Q: What about the “Plant response rating, Ragweed” value [7, 11] of the same compound?
A: The value was 100.

Q: What about the “Sedge, Umbrella plant response rating” value ([8]; 62 g ai/ha, scale 0 to 100) of the same compound?
A: Its value is 70.

Q: And the “Sedge, Umbrella plant response rating” value [8, 13]?
A: Its value is 80.

Q: What about the “Sedge, Umbrella plant response rating” value [8, 14] of the same compound?
A: Its value is 85.

Q: What about the “Plant response rating, Sedge, Umbrella” value [8, 15] of the same compound?
A: The value was 85.

Q: What about the “Barnyardgrass plant response rating” value ([9]; 62 g ai/ha, scale 0 to 100 (0 no effect, 100 complete control)) of the same compound?
A: The value was 75.

Q: And the “Barnyardgrass plant response rating” value [9, 13]?
A: Its value is 80.

Q: And the “Barnyardgrass plant response rating” value [9, 14]?
A: The value was 80.

Q: What about the “Plant response rating, Barnyardgrass” value [9, 15] of the same compound?
A: Its value is 90.

Q: Which results are given for `CCc1nn(C(C)(C)C)cc1C(=O)Nc1cccc(C(=O)N(CC)CC)c1` [Compound 182, N-[3-[(diethylamino)carbonyl]phenyl]-1-(1,1-dimethylethyl)-3-ethyl-1H-pyrazole-4-carboxamide]?
A: pest or weed control at 62 g/ha ([1]; Cynodon dactylon, pre-emergence, 312 h, 62 g ai/ha, preemergence, scale 0 to 100, 0 no effect, 100 complete control, read-out: Plant response rating, Bermudagrass): 20%; pest or weed control at 125 g/ha ([1]; Cynodon dactylon, pre-emergence, 312 h, 125 g ai/ha, scale 0 (no effect) to 100 (complete control), visual, 12 to 14 days, read-out: Plant response rating, Bermudagrass): 75%; pest or weed control at 250 g/ha ([1]; Cynodon dactylon, pre-emergence, 312 h, 250 g ai/ha, scale 0 to 100 (0 no effect, 100 complete control), visual, 12 to 14 days, read-out: Plant response rating, Bermudagrass): 90%; pest or weed control at 500 g/ha ([1]; Cynodon dactylon, pre-emergence, 312 h, Preemergence, 500 g ai/ha, scale 0 to 100, 0 no effect, 100 complete control, read-out: Bermudagrass plant response rating): 95%; Foxtail, Giant plant response rating [2, 16]: 60; pest or weed control at 62 g/ha ([2]; Setaria faberi, pre-emergence, 312 h, 62 g ai/ha, preemergence, scale 0 to 100, read-out: Plant response rating, Foxtail, Giant): 0%; pest or weed control at 125 g/ha ([2]; Setaria faberi, pre-emergence, 312 h, 125 g ai/ha, scale 0 (no effect) to 100 (complete control), visual, 12 to 14 days, read-out: Plant response rating, Foxtail, Giant): 0%; pest or weed control at 250 g/ha ([2]; Setaria faberi, pre-emergence, 312 h, 250 g ai/ha, scale 0 to 100 (0 no effect, 100 complete control), visual, 12 to 14 days, read-out: Plant response rating, Foxtail, Giant): 60%; pest or weed control at 62 g/ha ([3]; Chenopodium album, pre-emergence, 62 g ai/ha, preemergence, scale 0 to 100, read-out: Plant response rating, Lambsquarters): 25%; pest or weed control at 125 g/ha ([3]; Chenopodium album, pre-emergence, 125 g ai/ha, scale 0 (no effect) to 100 (complete control), visual, 12 to 14 days, read-out: Plant response rating, Lambsquarters): 95%; Lambsquarters plant response rating [3, 16]: 95; pest or weed control at 62 g/ha ([4]; Ipomoea, pre-emergence, 62 g ai/ha, preemergence, scale 0 to 100, read-out: Plant response rating, Morningglory): 0%; pest or weed control at 125 g/ha ([4]; Ipomoea, pre-emergence, 125 g ai/ha, scale 0 (no effect) to 100 (complete control), visual, 12 to 14 days, read-out: Plant response rating, Morningglory): 15%; Morningglory plant response rating [4, 16]: 100; Nightshade plant response rating [5, 16]: 95; pest or weed control at 62 g/ha ([5]; pre-emergence, 62 g ai/ha, preemergence, scale 0 to 100, read-out: Plant response rating, Nightshade): 70%; pest or weed control at 125 g/ha ([5]; pre-emergence, 125 g ai/ha, scale 0 (no effect) to 100 (complete control), visual, 12 to 14 days, read-out: Plant response rating, Nightshade): 80%; pest or weed control at 62 g/ha ([6]; Cyperus, pre-emergence, 62 g ai/ha, preemergence, scale 0 to 100, read-out: Plant response rating, Nutsedge, Yellow): 0%; pest or weed control at 125 g/ha ([6]; Cyperus, pre-emergence, 125 g ai/ha, scale 0 (no effect) to 100 (complete control), visual, 12 to 14 days, read-out: Plant response rating, Nutsedge, Yellow): 0%; Nutsedge, Yellow plant response rating [6, 16]: 0; pest or weed control at 62 g/ha ([7]; Ambrosia artemisiifolia, pre-emergence, 62 g ai/ha, preemergence, scale 0 to 100, read-out: Plant response rating, Ragweed): 20%; pest or weed control at 125 g/ha ([7]; Ambrosia artemisiifolia, pre-emergence, 125 g ai/ha, scale 0 (no effect) to 100 (complete control), visual, 12 to 14 days, read-out: Plant response rating, Ragweed): 20%; Ragweed plant response rating [7, 16]: 65
